{"source": "patent US5143925A", "about": "“Alteration of rate and character of hair growth” (priority 1991, dated 1992)", "key": {"transglutaminase": {"test_system": "transglutaminase", "test": "Inhibiting effect on transglutaminase activity", "format": "biochemical"}, "[1]": {"test_system": "flank organs of male intact Golden Syrian hamsters", "test": "Hamster flank organ hair growth (hair mass) after topical application", "format": "in vivo", "settings": "for Flank Organ Hair Mass, Treated: topical 10-25 μl once a day; for Flank Organ Hair Mass, Treated / % Inhibition of hair mass (+SEM): 18 days; for % Inhibition of hair mass (+SEM): treated organ vs vehicle-treated organ of same animal; for Hair shaft structure, microscopic examination: hair shafts harvested from flank organs", "description": "A vehicle or carrier was prepared having the following composition:\nThe compound BBD was mixed with separate portions of the foregoing vehicle to provide specimens containing 1,2,5,10, and 20% by weight of the inhibitor respectively.\nFive groups (seven or eight animals in each group) of male intact Golden Syrian hamsters were provided. These animals are considered acceptable models for human beard hair growth in that they display oval shaped flank organs, one on each side, each about 8 mm. in major diameter, which grow thick black and coarse hair similar to human beard hair. These organs produce hair in response to androgens in the hamster. The flank organs of each hamster were depilated by applying a thioglycolate-based chemical depilatory (Surgex), and to one organ of each animal was applied 10-25 μl. of vehicle alone once a day, while to the other organ of each animal was applied an equal amount of vehicle containing inhibitor. After 2 1/2 weeks of such applications (five days a week for a total of eighteen days), the flank organs were shaved and the amount of recovered hair (hair mass) from each was weighed. The extent of reduction in hair growth by the inhibitor was expressed as the percent decrease in hair mass on the organ treated with inhibitor as compared to the organ treated with vehicle alone. As a control, one additional control group of eight animals had both flank organs of each animal treated with vehicle alone."}}, "data": [{"smiles": "O=C(N[C@@H](Cc1ccccc1)C(=O)NCC1CC(Br)=NO1)OCc1ccccc1", "note": "(some centres unmarked) [BBD, 3-bromo-5-(N-benzyloxycarbonyl-1-phenylalanamido-methyl)-4,5-dihydroisoxazole]", "values": [{"measurement": "Inhibiting effect on transglutaminase activity", "setting": "transglutaminase", "value": "dose related"}, {"measurement": "Flank Organ Hair Mass, Treated", "setting": "[1]; 1% BBD in vehicle", "value": "2.614 ± .19 mg ± SEM"}, {"measurement": "% Inhibition of hair mass (+SEM)", "setting": "[1]; 1% BBD", "value": "19.54 ± 6.07", "unit": "%"}, {"measurement": "Length of the hair, visual inspection during treatment", "setting": "[1]; 1-20% BBD, topical, hamster flank organ", "value": "decrease in the length of the hair dependent upon the concentration of the inhibitor"}, {"measurement": "Flank Organ Hair Mass, Treated", "setting": "[1]; 2% BBD in vehicle", "value": "2.827 ± .23 mg ± SEM"}, {"measurement": "% Inhibition of hair mass (+SEM)", "setting": "[1]; 2% BBD", "value": "-3.63 ± 9.91", "unit": "%"}, {"measurement": "Flank Organ Hair Mass, Treated", "setting": "[1]; 5% BBD in vehicle", "value": "2.279 ± .28 mg ± SEM"}, {"measurement": "% Inhibition of hair mass (+SEM)", "setting": "[1]; 5% BBD", "value": "22.83 ± 9.62", "unit": "%"}, {"measurement": "Hair shaft structure, microscopic examination", "setting": "[1]; 5% and 10% concentrations of BBD", "value": "less dramatic but visually obvious changes in the medulla of hair shafts"}, {"measurement": "Flank Organ Hair Mass, Treated", "setting": "[1]; 10% BBD in vehicle", "value": "1.389 ± .12 mg ± SEM"}, {"measurement": "% Inhibition of hair mass (+SEM)", "setting": "[1]; 10% BBD", "value": "56.08 ± 4.64", "unit": "%"}, {"measurement": "Flank Organ Hair Mass, Treated", "setting": "[1]; 20% BBD in vehicle", "value": ".333 ± .06 mg ± SEM"}, {"measurement": "% Inhibition of hair mass (+SEM)", "setting": "[1]; 20% BBD", "value": "87.87 ± 1.54", "unit": "%"}, {"measurement": "Hair shaft structure, microscopic examination", "setting": "[1]; 20% concentration of BBD", "value": "dramatic deterioration of the hair shaft structure including disorganization of the medulla and cuticle"}]}]}
